Measured values reported in paper PMC4932603, “Identification, Characterization, and X-ray Crystallographic Analysis of a Novel Type of Mannose-Specific Lectin CGL1 from the Pacific Oyster Crassostrea gigas” (Scientific Reports, 2016).

Assays:
nCGL1 (native CGL1) = target: T1, nCGL1 (native CGL1) (Magallana gigas, UniProt K1QRB6); test: isothermal titration calorimetry; assay type: binding; conditions: read-out: K / × 10^3 M^-1 (converted)
T1 construct: gene CGI_10011001; native purification from oyster bodies (mannose-Cellulofine)
From the text: isothermal titration calorimetry on nCGL1 (native CGL1)

[1] = target: CGL1 (preparation not told: native or recombinant) (Crassostrea gigas); test: dynamic light scattering (DLS) + other: small angle X-ray scattering (SAXS); in an aqueous solution

Molecule	Kd (nCGL1 (native CGL1))	stoichiometry N [1]
CO[C@H]1O[C@H](CO)[C@@H](O)[C@H](O)[C@@H]1O [α-MeMan]	671 µM	–
CGL1 (preparation not told: native or recombinant) (natural protein)	–	2
